In PubChem BioAssay AID1963828 (Molecular Pharmacology Branch, DTP, NCI, 2024):

Test system: 991263-137-R1-J2-PDC complex spheroid viability
Assay: Anticancer human tumor 991263-137-R1-J2-PDC patient-derived colon adenocarcinoma cell line growth inhibition [POLQ]
Conditions: for IC50: curve of first compound; for viability, T/C: stronger effect = lower value
Method: Multicellular complex tumor spheroid response to Polymerase (POL) inhibitors (novobiocin, ART-558, RP6685) in combination with a variety of drugs and investigational agents in selected tumor cell lines
The POL inhibitors (novobiocin, ART-558, and RP6685) were evaluated both individually and in combination with standard of care and investigational anticancer small molecules within a complex spheroid model of solid tumors. . Complex spheroids include a stromal component modeled by human endothelial cells (HUVEC) and fibroblasts modeled by human mesenchymal stem cells (MSCs). The concentration ranges selected for each drug and investigational agent were based upon clinically achievable concentrations if the clinical Cmax of the agent was known.
Compounds. The drugs and investigational agents: novobiocin (NSC847541), ART-558 (NSC835418), RP-6685 (NSC848927), peposertib (NSC802822), ceralasertib (NSC780249), elimusertib (NSC800525), camonsertib (NSC841442), AZD-1390 (NSC803789), olaparib (NSC753686), talazoparib (NSC767125), rucaparib (NSC756644), sotorasib (NSC818433), MRTX-1133 (NSC836407), SN-38 (NSC673596), topotecan (NSC609699), epotoside (NSC141540), doxorubicin (NSC123127), gemcitabine (NSC613327), 5-fluorouracil (NSC19893), paclitaxel (NSC125973), vemurafenib (NSC761431), MSA-2 (NSC828583), SN-011 (NSC837082), adavosertib (NSC754352), prexasertib (NSC758257), carboplatin (NSC241240) and oxaliplatin (NSC266046), were obtained from the National Cancer Institute (NCI) Developmental Therapeutics Program Chemical Repository (21). The FDA-approved anticancer drug set is available from the Developmental Therapeutics Program at https://dtp.cancer.gov/organization/dscb/obtaining/. […] The stock solutions were prepared in dimethyl sulfoxide (DMSO, Sigma-Aldrich, St. Louis, MO, cat. D2650), except for the platinum compounds which were prepared in saline (Quality Biological, Gaithersburg, MD, cat. 114-055-101), at 800-fold the tested concentration and stored at -70 degrees C prior to their use. All drugs and investigational agents were tested over a range starting from a high concentration at or near the clinical Cmax and decreasing in half-log increments. If the clinical Cmax for an agent had not been determined, the highest concentration tested was 10 microM, except for SN-38, which was tested at a high concentration of 1 microM.
Cell Culture. All cells were maintained in an incubator at 37 degrees C and 5% CO2 with 95% humidity. The PDC lines were cultured according to standard operating procedures established by the NCI PDMR (https://pdmr.cancer.gov). Table 3 of the manuscript, lists the cell lines along with the number of the three cell types plated to form the mct-spheroids and media for tumor cell growth. After thawing, all PDC lines, except 997537-175-T-J1-PDC and 415267-285-R-J2-PDC, were cultured in Matrigel-coated flasks prepared with a working solution of 1X Ham's F-12 nutrient mix, without supplementation (Thermo Fisher Scientific, cat. 11765054), 100 U/mL penicillin-streptomycin (Thermo Fisher Scientific, cat. 15140122), and 2.5% Matrigel (Corning Inc., Corning, NY, cat. 354248) for the first three passages. The two PDC lines 997537-175-T-J1-PDC and 415267-285-R-J2-PDC were cultured on uncoated flasks. The 857933-349-R-J2-PDC line was cultured in 6C/Colon 1B media containing advanced DMEM/F-12 (Thermo Fisher Scientific, cat. 12634028), 10 mM HEPES (Thermo Fisher Scientific, cat. 15630080), 1X GlutaMAX supplement (Thermo Fisher Scientific, cat. 35050061), 0.1 mg/mL primocin (InvivoGen, San Diego, CA, cat. ant-pm-2), 10% defined fetal bovine serum, heat inactivated (HyClone Laboratories Inc., Logan, UT, cat. SH30070.03HI), 50% L-WRN conditioned media (ATCC, cat. CRL-3276), 1.25 mM N-Acetyl-L-cysteine (Sigma-Aldrich, cat. A9165), 10 mM nicotinamide (Sigma-Aldrich, cat. N0636), 1X B-27 supplement (Thermo Fisher Scientific, cat. 17504044), 1X N-2 supplement (Thermo Fisher Scientific, cat. […]

[1] = second compound 0.0316 µM, first compound 0.00316 µM
[2] = second compound 0.0316 µM, first compound 0.01 µM
[3] = second compound 0.0316 µM, first compound 0.0316 µM
[4] = second compound 0.0316 µM, first compound 0.1 µM
[5] = second compound 0.0316 µM, first compound 0.316 µM
[6] = second compound 0.0316 µM, first compound 1 µM
[7] = second compound 0.1 µM, first compound 0.00316 µM
[8] = second compound 0.1 µM, first compound 0.01 µM
[9] = second compound 0.1 µM, first compound 0.0316 µM
[10] = second compound 0.1 µM, first compound 0.1 µM
[11] = second compound 0.1 µM, first compound 0.316 µM
[12] = second compound 0.1 µM, first compound 1 µM
[13] = second compound 0.316 µM, first compound 0.00316 µM
[14] = second compound 0.316 µM, first compound 0.01 µM
[15] = second compound 0.316 µM, first compound 0.0316 µM
[16] = second compound 0.316 µM, first compound 0.1 µM
[17] = second compound 0.316 µM, first compound 0.316 µM
[18] = second compound 0.316 µM, first compound 1 µM
[19] = second compound 1 µM, first compound 0.00316 µM
[20] = second compound 1 µM, first compound 0.01 µM
[21] = second compound 1 µM, first compound 0.0316 µM
[22] = second compound 1 µM, first compound 0.1 µM
[23] = second compound 1 µM, first compound 0.316 µM
[24] = second compound 1 µM, first compound 1 µM
[25] = second compound 3.16 µM, first compound 0.00316 µM
[26] = second compound 3.16 µM, first compound 0.01 µM
[27] = second compound 3.16 µM, first compound 0.0316 µM
[28] = second compound 3.16 µM, first compound 0.1 µM
[29] = second compound 3.16 µM, first compound 0.316 µM
[30] = second compound 3.16 µM, first compound 1 µM
[31] = second compound 10 µM, first compound 0.00316 µM
[32] = second compound 10 µM, first compound 0.01 µM
[33] = second compound 10 µM, first compound 0.0316 µM
[34] = second compound 10 µM, first compound 0.1 µM
[35] = second compound 10 µM, first compound 0.316 µM
[36] = second compound 10 µM, first compound 1 µM
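Also: spheroids exposed to compounds for 7 days before readout.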
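For viability, T/C in this document: 100% = DMSO vehicle control viability.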

## C=CCn1c(=O)c2cnc(Nc3ccc(N4CCN(C)CC4)cc3)nc2n1-c1cccc(C(C)(C)O)n1 + Nc1ccc(C#CCN(C(=O)Cc2ncc(C(F)(F)F)cc2C(F)(F)F)c2ccc(F)cc2)nn1
Second compound 0.0316 µM
  IC50: > 1000 nM
Second compound 0.1 µM
  IC50: > 1000 nM
Second compound 0.316 µM
  IC50: > 1000 nM
Second compound 1 µM
  IC50: > 1000 nM
Second compound 3.16 µM
  IC50: > 1000 nM
Second compound 10 µM
  IC50: > 1000 nM
[1]
  viability, T/C: 96.2%
[2]
  viability, T/C: 100%
[3]
  viability, T/C: 90.4%
[4]
  viability, T/C: 102%
[5]
  viability, T/C: 104%
[6]
  viability, T/C: 97.8%
[7]
  viability, T/C: 117%
[8]
  viability, T/C: 105%
[9]
  viability, T/C: 93.6%
[10]
  viability, T/C: 101%
[11]
  viability, T/C: 103%
[12]
  viability, T/C: 93.8%
[13]
  viability, T/C: 97.3%
[14]
  viability, T/C: 98.2%
[15]
  viability, T/C: 108%
[16]
  viability, T/C: 96.3%
[17]
  viability, T/C: 109%
[18]
  viability, T/C: 93.5%
[19]
  viability, T/C: 103%
[20]
  viability, T/C: 115%
[21]
  viability, T/C: 103%
[22]
  viability, T/C: 105%
[23]
  viability, T/C: 105%
[24]
  viability, T/C: 92%
[25]
  viability, T/C: 91.8%
[26]
  viability, T/C: 102%
[27]
  viability, T/C: 101%
[28]
  viability, T/C: 92.1%
[29]
  viability, T/C: 98.1%
[30]
  viability, T/C: 102%
[31]
  viability, T/C: 86.3%
[32]
  viability, T/C: 102%
[33]
  viability, T/C: 103%
[34]
  viability, T/C: 99.4%
[35]
  viability, T/C: 102%
[36]
  viability, T/C: 78.2%

## CCCS(=O)(=O)Nc1ccc(F)c(C(=O)c2c[nH]c3ncc(-c4ccc(Cl)cc4)cc23)c1F + Nc1ccc(C#CCN(C(=O)Cc2ncc(C(F)(F)F)cc2C(F)(F)F)c2ccc(F)cc2)nn1
Second compound 0.0316 µM
  IC50: > 10000 nM
Second compound 0.1 µM
  IC50: > 10000 nM
Second compound 0.316 µM
  IC50: > 10000 nM
Second compound 1 µM
  IC50: > 10000 nM
Second compound 3.16 µM
  IC50: > 10000 nM
Second compound 10 µM
  IC50: > 10000 nM
[3]
  viability, T/C: 114%
[4]
  viability, T/C: 98.2%
[5]
  viability, T/C: 103%
[6]
  viability, T/C: 107%
Second compound 0.0316 µM, first compound 3.16 µM
  viability, T/C: 117%
Second compound 0.0316 µM, first compound 10 µM
  viability, T/C: 102%
[9]
  viability, T/C: 97.6%
[10]
  viability, T/C: 101%
[11]
  viability, T/C: 97.2%
[12]
  viability, T/C: 110%
Second compound 0.1 µM, first compound 3.16 µM
  viability, T/C: 103%
Second compound 0.1 µM, first compound 10 µM
  viability, T/C: 103%
[15]
  viability, T/C: 105%
[16]
  viability, T/C: 114%
[17]
  viability, T/C: 108%
[18]
  viability, T/C: 98.7%
Second compound 0.316 µM, first compound 3.16 µM
  viability, T/C: 128%
Second compound 0.316 µM, first compound 10 µM
  viability, T/C: 95.1%
[21]
  viability, T/C: 93.9%
[22]
  viability, T/C: 102%
[23]
  viability, T/C: 112%
[24]
  viability, T/C: 117%
Second compound 1 µM, first compound 3.16 µM
  viability, T/C: 117%
Second compound 1 µM, first compound 10 µM
  viability, T/C: 107%
[27]
  viability, T/C: 117%
[28]
  viability, T/C: 97.3%
[29]
  viability, T/C: 111%
[30]
  viability, T/C: 93.2%
Second compound 3.16 µM, first compound 3.16 µM
  viability, T/C: 111%
Second compound 3.16 µM, first compound 10 µM
  viability, T/C: 115%
[33]
  viability, T/C: 90.2%
[34]
  viability, T/C: 112%
[35]
  viability, T/C: 95.7%
[36]
  viability, T/C: 104%
Second compound 10 µM, first compound 3.16 µM
  viability, T/C: 115%
Second compound 10 µM, first compound 10 µM
  viability, T/C: 116%

## COc1cccc(OCCCN)c1-c1cc(Nc2cnc(C#N)cn2)n[nH]1 + Nc1ccc(C#CCN(C(=O)Cc2ncc(C(F)(F)F)cc2C(F)(F)F)c2ccc(F)cc2)nn1
Second compound 0.0316 µM
  IC50: 718 nM
Second compound 0.1 µM
  IC50: 587 nM
Second compound 0.316 µM
  IC50: 666 nM
Second compound 1 µM
  IC50: 728 nM
Second compound 3.16 µM
  IC50: 425 nM
Second compound 10 µM
  IC50: 87.4 nM
[1]
  viability, T/C: 114%
[2]
  viability, T/C: 89.4%
[3]
  viability, T/C: 105%
[4]
  viability, T/C: 83.4%
[5]
  viability, T/C: 55.9%
[6]
  viability, T/C: 47.5%
[7]
  viability, T/C: 104%
[8]
  viability, T/C: 105%
[9]
  viability, T/C: 100%
[10]
  viability, T/C: 82.8%
[11]
  viability, T/C: 57.8%
[12]
  viability, T/C: 43.5%
[13]
  viability, T/C: 102%
[14]
  viability, T/C: 106%
[15]
  viability, T/C: 103%
[16]
  viability, T/C: 85.1%
[17]
  viability, T/C: 67.9%
[18]
  viability, T/C: 40.7%
[19]
  viability, T/C: 106%
[20]
  viability, T/C: 95.2%
[21]
  viability, T/C: 89.4%
[22]
  viability, T/C: 80.9%
[23]
  viability, T/C: 70.5%
[24]
  viability, T/C: 42%
[25]
  viability, T/C: 102%
[26]
  viability, T/C: 93.2%
[27]
  viability, T/C: 83.4%
[28]
  viability, T/C: 70.4%
[29]
  viability, T/C: 51.5%
[30]
  viability, T/C: 41.4%
[31]
  viability, T/C: 93.3%
[32]
  viability, T/C: 96.5%
[33]
  viability, T/C: 73%
[34]
  viability, T/C: 46.8%
[35]
  viability, T/C: 49.9%
[36]
  viability, T/C: 44.2%
